From PubChem BioAssay (NCI)
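Dose response: 5 concentrations. Exposure: 48 h. Format: 96-well plates. Endpoint: linear interpolation; highest concentration if not reached. GI50 = concentration required for 50% inhibition of growth. TGI: concentration producing complete growth inhibition.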

What was measured:
Experiment in all cases: NCI anticancer screen, dose series, 48 h
HS 578T breast = test system: HS 578T breast
CCRF-CEM leukemia = test system: CCRF-CEM leukemia
HCT-116 colon = test system: HCT-116 colon
MCF7 breast = test system: MCF7 breast
HOP-92 NSCLC = test system: HOP-92 NSCLC
HCT-15 colon = test system: HCT-15 colon
A498 renal = test system: A498 renal
KM12 colon = test system: KM12 colon
HT29 colon = test system: HT29 colon
IGROV1 ovarian = test system: IGROV1 ovarian

O=c1oc2ccc(F)cc2c(=O)n1-c1ccc(Cl)cc1F
GI50 (HS 578T breast): 0.572 µM
TGI (HS 578T breast): 5.77 µM
GI50 (CCRF-CEM leukemia): 2.62 µM
TGI (CCRF-CEM leukemia): 13 µM
GI50 (HCT-116 colon): 0.563 µM
TGI (HCT-116 colon): 2.82 µM
GI50 (MCF7 breast): 1.95 µM
TGI (MCF7 breast): > 29 µM
GI50 (HOP-92 NSCLC): 0.205 µM
TGI (HOP-92 NSCLC): 0.613 µM
GI50 (HCT-15 colon): 1.26 µM
TGI (HCT-15 colon): 10.3 µM
GI50 (A498 renal): 0.24 µM
TGI (A498 renal): 0.796 µM
GI50 (KM12 colon): 2.11 µM
TGI (KM12 colon): 5.84 µM
GI50 (HT29 colon): 3.29 µM
TGI (HT29 colon): > 34.2 µM
GI50 (IGROV1 ovarian): 0.532 µM
TGI (IGROV1 ovarian): > 45.8 µM

COc1ccc(/C(=N\O)c2cc(OC)c(OC)c(OC)c2)c(OC)c1N
GI50 (HS 578T breast): 5.51 µM
TGI (HS 578T breast): > 100 µM
GI50 (CCRF-CEM leukemia): 3.54 µM
TGI (CCRF-CEM leukemia): > 100 µM
GI50 (HCT-116 colon): 2.82 µM
TGI (HCT-116 colon): > 100 µM
GI50 (MCF7 breast): 2.46 µM
TGI (MCF7 breast): > 100 µM
GI50 (HOP-92 NSCLC): > 100 µM
TGI (HOP-92 NSCLC): > 100 µM
GI50 (HCT-15 colon): 2.64 µM
TGI (HCT-15 colon): > 100 µM
GI50 (A498 renal): 3.75 µM
TGI (A498 renal): > 100 µM
GI50 (KM12 colon): 2.11 µM
TGI (KM12 colon): > 100 µM
GI50 (HT29 colon): 3.4 µM
TGI (HT29 colon): > 100 µM
GI50 (IGROV1 ovarian): 6.83 µM
TGI (IGROV1 ovarian): > 100 µM

COc1ccc2c(c1)C(=O)/C(=C/c1ccc([N+](=O)[O-])s1)O2
GI50 (HS 578T breast): 0.269 µM
GI50 (CCRF-CEM leukemia): 0.308 µM
GI50 (HCT-116 colon): 0.204 µM
TGI (HCT-116 colon): 0.401 µM
GI50 (MCF7 breast): 0.344 µM
TGI (MCF7 breast): > 100 µM
GI50 (HOP-92 NSCLC): 0.23 µM
TGI (HOP-92 NSCLC): 1.23 µM
GI50 (HCT-15 colon): 0.219 µM
TGI (HCT-15 colon): 0.697 µM
GI50 (A498 renal): 2.05 µM
TGI (A498 renal): 6.51 µM
GI50 (KM12 colon): 0.235 µM
TGI (KM12 colon): 0.51 µM
GI50 (HT29 colon): 0.502 µM
TGI (HT29 colon): 2.67 µM
GI50 (IGROV1 ovarian): 0.349 µM
TGI (IGROV1 ovarian): 1.2 µM

CO/N=C(\COc1ccc2c(c1)oc(=O)c1cc(OC)ccc12)c1ccc(F)cc1
GI50 (HS 578T breast): 29.9 µM
TGI (HS 578T breast): > 100 µM
GI50 (CCRF-CEM leukemia): 47.5 µM
TGI (CCRF-CEM leukemia): > 100 µM
GI50 (HCT-116 colon): 14.9 µM
TGI (HCT-116 colon): 41.2 µM
GI50 (MCF7 breast): 34.7 µM
TGI (MCF7 breast): > 100 µM
GI50 (HOP-92 NSCLC): 14.4 µM
TGI (HOP-92 NSCLC): 37.4 µM
GI50 (HCT-15 colon): 24.7 µM
TGI (HCT-15 colon): 81.9 µM
GI50 (A498 renal): 22.3 µM
TGI (A498 renal): 93.5 µM
GI50 (KM12 colon): 33.7 µM
TGI (KM12 colon): > 100 µM
GI50 (HT29 colon): 16.7 µM
TGI (HT29 colon): 66.8 µM
GI50 (IGROV1 ovarian): 19.3 µM
TGI (IGROV1 ovarian): 42.8 µM

CS(=O)(=O)Nc1cccc(-c2ccc3c(NC(=O)C4CC4)n[nH]c3c2)c1
GI50 (HS 578T breast): 2.22 µM
TGI (HS 578T breast): > 25 µM
GI50 (CCRF-CEM leukemia): 1.33 µM
TGI (CCRF-CEM leukemia): > 25 µM
GI50 (HCT-116 colon): 1.51 µM
TGI (HCT-116 colon): > 25 µM
GI50 (MCF7 breast): 0.794 µM
TGI (MCF7 breast): > 9.93 µM
TGI (HOP-92 NSCLC): > 25 µM
GI50 (HCT-15 colon): 7.29 µM
TGI (HCT-15 colon): > 25 µM
GI50 (A498 renal): 4.32 µM
TGI (A498 renal): > 25 µM
GI50 (KM12 colon): 1.39 µM
TGI (KM12 colon): > 25 µM
GI50 (HT29 colon): 3.88 µM
TGI (HT29 colon): > 25 µM
GI50 (IGROV1 ovarian): 16.3 µM
TGI (IGROV1 ovarian): > 25 µM

CCCCCCCCCCCCCCCCOC(=O)c1c(C)[nH]c(/C=C2\N=C(c3ccc[nH]3)C=C2OC)c1C
GI50 (HS 578T breast): 1.41 µM
TGI (HS 578T breast): 9.38 µM
GI50 (CCRF-CEM leukemia): 32.9 µM
TGI (CCRF-CEM leukemia): > 100 µM
GI50 (HCT-116 colon): 0.043 µM
TGI (HCT-116 colon): 7.33 µM
GI50 (MCF7 breast): 0.0686 µM
TGI (MCF7 breast): > 100 µM
GI50 (HOP-92 NSCLC): 0.2 µM
TGI (HOP-92 NSCLC): 0.83 µM
GI50 (HCT-15 colon): 2.21 µM
TGI (HCT-15 colon): > 100 µM
GI50 (A498 renal): 1.51 µM
TGI (A498 renal): 5.47 µM
GI50 (KM12 colon): 0.102 µM
TGI (KM12 colon): > 100 µM
GI50 (HT29 colon): 0.083 µM
TGI (HT29 colon): > 100 µM
GI50 (IGROV1 ovarian): 1.06 µM
TGI (IGROV1 ovarian): 9.4 µM

O=C(Nc1ccc(Cl)cc1)c1ccc([N+](=O)[O-])o1
GI50 (HS 578T breast): 2.81 µM
TGI (HS 578T breast): 18.6 µM
GI50 (CCRF-CEM leukemia): 4.11 µM
TGI (CCRF-CEM leukemia): 49.4 µM
GI50 (HCT-116 colon): 1.39 µM
TGI (HCT-116 colon): 3.11 µM
GI50 (MCF7 breast): 1.52 µM
TGI (MCF7 breast): 4.19 µM
GI50 (HOP-92 NSCLC): 10.4 µM
TGI (HOP-92 NSCLC): 27.2 µM
GI50 (HCT-15 colon): 1.48 µM
TGI (HCT-15 colon): 3.43 µM
GI50 (A498 renal): 3.46 µM
TGI (A498 renal): 14.8 µM
GI50 (KM12 colon): 2.35 µM
TGI (KM12 colon): 6.38 µM
GI50 (HT29 colon): 1.34 µM
TGI (HT29 colon): 3.45 µM
GI50 (IGROV1 ovarian): 3.25 µM
TGI (IGROV1 ovarian): 11.2 µM

O=C(Nc1cccnc1)c1cccc([N+](=O)[O-])c1
GI50 (HS 578T breast): > 100 µM
TGI (HS 578T breast): > 100 µM
GI50 (CCRF-CEM leukemia): > 100 µM
TGI (CCRF-CEM leukemia): > 100 µM
GI50 (HCT-116 colon): > 100 µM
TGI (HCT-116 colon): > 100 µM
GI50 (MCF7 breast): > 100 µM
TGI (MCF7 breast): > 100 µM
GI50 (HOP-92 NSCLC): > 100 µM
TGI (HOP-92 NSCLC): > 100 µM
GI50 (HCT-15 colon): > 100 µM
TGI (HCT-15 colon): > 100 µM
GI50 (A498 renal): > 100 µM
TGI (A498 renal): > 100 µM
GI50 (KM12 colon): > 100 µM
TGI (KM12 colon): > 100 µM
GI50 (HT29 colon): > 100 µM
TGI (HT29 colon): > 100 µM
GI50 (IGROV1 ovarian): > 100 µM
TGI (IGROV1 ovarian): > 100 µM

c1ccc2c(-c3nc4ccccc4[nH]3)cccc2c1
GI50 (HS 578T breast): 2.49 µM
TGI (HS 578T breast): 17.2 µM
GI50 (CCRF-CEM leukemia): 2.54 µM
TGI (CCRF-CEM leukemia): 7.81 µM
GI50 (HCT-116 colon): 3.47 µM
TGI (HCT-116 colon): 96.8 µM
GI50 (MCF7 breast): 2.94 µM
TGI (MCF7 breast): 37.9 µM
GI50 (HOP-92 NSCLC): 4.27 µM
TGI (HOP-92 NSCLC): 38.2 µM
GI50 (HCT-15 colon): 1.82 µM
TGI (HCT-15 colon): > 100 µM
GI50 (A498 renal): 1.11 µM
TGI (A498 renal): 6.52 µM
GI50 (KM12 colon): 2.26 µM
TGI (KM12 colon): > 100 µM
GI50 (HT29 colon): 2.68 µM
TGI (HT29 colon): 11.8 µM
GI50 (IGROV1 ovarian): 5.01 µM
TGI (IGROV1 ovarian): 40.3 µM

O=C(NCC(=O)N1CC[C@H](NC2CCC(O)(c3ccc(-c4ncccn4)cn3)CC2)C1)c1cccc(C(F)(F)F)c1 (some centres not stated)
GI50 (HS 578T breast): 48.9 µM
TGI (HS 578T breast): > 100 µM
GI50 (CCRF-CEM leukemia): 88.6 µM
TGI (CCRF-CEM leukemia): > 100 µM
GI50 (HCT-116 colon): 36.4 µM
TGI (HCT-116 colon): > 100 µM
GI50 (MCF7 breast): 41.8 µM
TGI (MCF7 breast): > 100 µM
GI50 (HOP-92 NSCLC): 30.4 µM
TGI (HOP-92 NSCLC): > 100 µM
GI50 (HCT-15 colon): 52.8 µM
TGI (HCT-15 colon): > 100 µM
GI50 (A498 renal): 24.5 µM
TGI (A498 renal): > 100 µM
GI50 (KM12 colon): > 100 µM
TGI (KM12 colon): > 100 µM
GI50 (HT29 colon): 53 µM
TGI (HT29 colon): > 100 µM
GI50 (IGROV1 ovarian): > 100 µM
TGI (IGROV1 ovarian): > 100 µM

COc1ccc(N(C)c2nc(Cl)nc3ccn(C)c23)cc1
GI50 (HS 578T breast): < 0.01 µM
TGI (HS 578T breast): > 100 µM
GI50 (CCRF-CEM leukemia): < 0.01 µM
TGI (CCRF-CEM leukemia): > 100 µM
GI50 (HCT-116 colon): < 0.01 µM
TGI (HCT-116 colon): > 100 µM
GI50 (MCF7 breast): < 0.01 µM
TGI (MCF7 breast): > 100 µM
GI50 (HOP-92 NSCLC): 1.79 µM
TGI (HOP-92 NSCLC): 67.5 µM
GI50 (HCT-15 colon): < 0.01 µM
TGI (HCT-15 colon): > 100 µM
GI50 (A498 renal): < 0.01 µM
TGI (A498 renal): > 100 µM
GI50 (KM12 colon): < 0.01 µM
TGI (KM12 colon): > 100 µM
GI50 (HT29 colon): < 0.01 µM
TGI (HT29 colon): 0.12 µM
GI50 (IGROV1 ovarian): < 0.01 µM
TGI (IGROV1 ovarian): > 100 µM
